# According to patent US4999372A, “New aminochromanol compounds” (ADIR et Compagnie, priority 1988, dated 1991):
# Where two headings read alike, the source gives them in different places.
# Experiments:
# aorta of the rat = test: Relaxation of rat aortic rings contracted by potassium depolarisation (KCl); assay type: cell-based; conditions: Rattus norvegicus, rat aorta rings without endothelium
# Procedure: Male Wistar rats (325-375 g) are anaesthetised i.p. using sodium pentobarbital (30 mg/kg). The thoracic aorta and the mesenteric portal vein are removed. The aorta is dissected into rings 3 mm long and the endothelium is removed mechanically.
# The organs are placed in a 20 ml thermostatically controlled vessel containing a physiological solution composed of (mM): NaCl 112; KCl 5; KH2 PO4 1; MgSO4 1.2; CaCl2 2.5; NaHCO3 25; glucose 11.5; EDTA 0.1; pH: 7.4; 37° C.; 95% O2 +5% CO2.
# The initial force applied is 2 g in the case of the aorta and 0.5 g in the case of the portal vein. The variations in force are measured by a STATHAM sensor connected to a transducer amplifier (GOULD) and are monitored continuously on a GOULD 2400 graphic recorder.
# The experimental protocols are as follows: After a stabilisation period of 90 minutes, the aortic rings are subjected to various tests:
# potassium depolarisation:
# The preparations are exposed to a 30 mM or 80 mM KCl (and 87 and 37 mM NaCl, respectively) hyperpotassium medium; after 30 minutes' stabilisation of contraction, cumulative concentrations of the product to be tested are added every 15 minutes. The relaxation values obtained allow the IC50 s to be calculated.
# The products are used in a form dissolved in water or a suitable solvent.
# The concentrations expressed refer to the final concentrations in terms of base in the isolated organ baths.
# anaesthetised dog = test: Haemodynamic study in the anaesthetised dog (vascular resistances), i.v.; assay type: in vivo
# Procedure: A complete haemodynamic study was carried out on mongrel dogs weighing from 25 to 30 kg, which were anaesthetised with sodium pentobarbital 30 mg/kg i.v., intubated and ventilated and subjected to a thoracotomy at the 5th left intercostal space. The measurement of the […] is carried out using electromagnetic rings positioned at the level of the ascending aorta and the circumflex branch of the left coronary artery, respectively, and connected to GOULD SP 2202 electromagnetic flow meters. The aortic pressure is measured by a MILLAR probe introduced via the femoral artery.
# The total peripheral vascular resistance values (TPR) and the mean coronary vascular resistance values (CVRM) are calculated by the ratio between the mean aortic pressure and the mean cardiac output and the mean coronary output, respectively. The products tested were injected via the femoral vein in a form dissolved in water or a suitable solvent.
# The evolution of the vascular resistances, expressed as percentage variation with respect to the control values, is presented as a function of time in the following Table.
# [1] = tested on: conscious renally hypertensive dog; test: Arterial pressure in the conscious renally hypertensive dog; assay type: in vivo; conditions: gastric intubation, 0.1 mg/kg
# Procedure: Mongrel dogs weighing from 20 to 25 kg are used. A silastic catheter positioned under anaesthesia (sodium pentobarbital 30 mg/kg i.v.) at the level of the abdominal aorta and left over a prolonged period permits the later measurement of the arterial pressure in the conscious animals. Arterial hypertension is induced by a second intervention under anaesthesia consisting in a constriction of the left renal artery using a clip, which reduces its rate of flow by approximately 70%, the left kidney is enveloped in a latex capsule and the contralateral kidney is left in place.
# The systolic and diastolic arterial pressures (PAS and PAD) are measured using a STATHAM P23 pressure sensor connected to the silastic catheter and linked to a GOULD pressure amplifier. The products are tested on the animals, which have become hypertensive, in the conscious state, at least one week after the second intervention. The arterial pressure is monitored continuously on an ES1000 GOULD recorder until 7 hours have elapsed after the treatment and then until 24 hours have elapsed.
# The products to be tested are administered via the digestive system, after gastric intubation, in a form dissolved in water or a suitable solvent. The doses administered are expressed in mg of base with respect to body weight.
# The representative products of the invention were compared with the reference product (CROMAKALIM). The variations in the systolic and diastolic arterial pressures (PAS and PAD), presented at the most significant times after treatment, are expressed as percentage variation with respect to the control values.
# [2] = tested on: spontaneously hypertensive rat (SHR); test: Arterial pressure in the conscious spontaneously hypertensive rat (SHR), oral; assay type: in vivo
# Procedure: The study is carried out on SHR male rats (Charles River) weighing from 260 g to 330 g and aged from 18 to 20 weeks. A polyethylene catheter is positioned at the level of the abdominal aorta and tunnelised at the level of the neck under anaesthesia (ketamine hydrochloride 150 mg/kg intraperitoneally). The animals, placed in movement-restraining cages, are tested in the conscious state at least 48 hours after intervention. The arterial pressure, measured by a STATHAM P23 pressure sensor connected to the abdominal catheter, is registered on a GOULD 2400 recorder. […] The doses administered are expressed in mg/kg of base.
# The results obtained with a certain number of representative products of the invention and a reference product, CROMAKALIM, are grouped in the following Table. The variations in systolic and diastolic arterial pressure (PAS and PAD) presented at the most significant times after treatment are expressed as percentage variation with respect to the control values.
# guinea pig = test: Bronchospasm produced by a histamine aerosol at 4%, compound i.v.; assay type: in vivo; conditions: 0.35 mg/kg i.v.
# Procedure: The bronchodilating activity has been studied in the guinea pig by the method of H. KONZETT and R. ROSSLER, Arch. Exp. Path. U. Pharm. 195, 71 (1940).
# For example, the bronchospasm produced in the guinea pig by a histamine aerosol et 4% is inhibited of 96% by the compound of Example 1 B form, at the dose of 0.30 mg/kg i.v., and of 100% by the compound of Example 24 B form, at the dose of 0.35 mg/kg i.v.
smiles,measurement,setting,value
"COC[C@@H]1CCC(=O)N1C1c2cc(C#N)ccc2OC(C)(C)C1O (single isomer, unassigned) [Example 2 form A, 3S,4R- or 3R,4S-trans-2,2-dimethyl-3-hydroxy-4-(2-oxo-5S-methoxymethyl-1-pyrrolidinyl)-6-cyanochroman]",IC50,"aorta of the rat; 30 mM KCl, read-out: IC50 (M) KCl 30 mM",2.8e-07 M
same,IC50,"aorta of the rat; 80 mM KCl, read-out: IC50 (M) KCl 80 mM",> 0.0001 M
same,Variation (%) of CVRM after treatment,"anaesthetised dog; 30 μg/kg, 1 min",-28.9%
same,Variation (%) of TPR after treatment,"anaesthetised dog; 30 μg/kg, 1 min",-9.8%
same,Variation (%) of CVRM after treatment,"anaesthetised dog; 30 μg/kg, 10 min",-20.2%
same,Variation (%) of TPR after treatment,"anaesthetised dog; 30 μg/kg, 10 min",-11.8%
same,Variation (%) of CVRM after treatment,"anaesthetised dog; 30 μg/kg, 30 min",-22.1%
same,Variation (%) of TPR after treatment,"anaesthetised dog; 30 μg/kg, 30 min",-11.8%
same,Variation (%) of CVRM after treatment,"anaesthetised dog; 100 μg/kg, 1 min",-54.7%
same,Variation (%) of TPR after treatment,"anaesthetised dog; 100 μg/kg, 1 min",-15.8%
same,Variation (%) of CVRM after treatment,"anaesthetised dog; 100 μg/kg, 10 min",-56.1%
same,Variation (%) of TPR after treatment,"anaesthetised dog; 100 μg/kg, 10 min",-14.7%
same,Variation (%) of CVRM after treatment,"anaesthetised dog; 100 μg/kg, 30 min",-50.5%
same,Variation (%) of TPR after treatment,"anaesthetised dog; 100 μg/kg, 30 min",-12.6%
same,Variation (%) of PAD after treatment,[1]; 1 H,-20%
same,Variation (%) of PAS after treatment,[1]; 1 H,-12%
same,Variation (%) of PAD after treatment,[1]; 3 H,-32%
same,Variation (%) of PAS after treatment,[1]; 3 H,-28%
same,Variation (%) of PAD after treatment,[1]; 7 H,-44%
same,Variation (%) of PAS after treatment,[1]; 7 H,-41%
same,Variation (%) of PAD after treatment,[1]; 24 H,0%
same,Variation (%) of PAS after treatment,[1]; 24 H,-2%
same,Variation (%) of PAD after treatment,[1]; 30 min,-14%
same,Variation (%) of PAS after treatment,[1]; 30 min,-2%
same,Variation (%) of PAD after treatment,"[2]; 1.0 mg/kg, 1 H",-21 ± 4%
same,Variation (%) of PAS after treatment,"[2]; 1.0 mg/kg, 1 H",-16 ± 3%
same,Variation (%) of PAD after treatment,"[2]; 1.0 mg/kg, 3 H",-19 ± 3%
same,Variation (%) of PAS after treatment,"[2]; 1.0 mg/kg, 3 H",-12 ± 3%
same,Variation (%) of PAD after treatment,"[2]; 1.0 mg/kg, 6 H",-14 ± 2%
same,Variation (%) of PAS after treatment,"[2]; 1.0 mg/kg, 6 H",-9 ± 2%
same,Variation (%) of PAD after treatment,"[2]; 1.0 mg/kg, 30 min",-17 ± 3%
same,Variation (%) of PAS after treatment,"[2]; 1.0 mg/kg, 30 min",-11 ± 2%
same,Variation (%) of PAD after treatment,"[2]; 3.0 mg/kg, 1 H",-36 ± 3%
same,Variation (%) of PAS after treatment,"[2]; 3.0 mg/kg, 1 H",-26 ± 2%
same,Variation (%) of PAD after treatment,"[2]; 3.0 mg/kg, 3 H",-31 ± 3%
same,Variation (%) of PAS after treatment,"[2]; 3.0 mg/kg, 3 H",-25 ± 3%
same,Variation (%) of PAD after treatment,"[2]; 3.0 mg/kg, 6 H",-27 ± 3%
same,Variation (%) of PAS after treatment,"[2]; 3.0 mg/kg, 6 H",-21 ± 3%
same,Variation (%) of PAD after treatment,"[2]; 3.0 mg/kg, 30 min",-35 ± 3%
same,Variation (%) of PAS after treatment,"[2]; 3.0 mg/kg, 30 min",-24 ± 1%
"CN(C)C[C@@H]1CCC(=O)N1C1c2cc(C#N)ccc2OC(C)(C)C1O (single isomer, unassigned) [Example 3 form A, 3R,4S- or 3S,4R-trans-2,2-dimethyl-3-hydroxy-4-(2-oxo-5S-dimethylaminomethyl-1-pyrrolidinyl)-6-cyanochroman]",Variation (%) of CVRM after treatment,"anaesthetised dog; 3000 μg/kg, 1 min",+2.5%
same,Variation (%) of TPR after treatment,"anaesthetised dog; 3000 μg/kg, 1 min",+1.7%
same,Variation (%) of CVRM after treatment,"anaesthetised dog; 3000 μg/kg, 10 min",-38.5%
same,Variation (%) of TPR after treatment,"anaesthetised dog; 3000 μg/kg, 10 min",-6.8%
same,Variation (%) of CVRM after treatment,"anaesthetised dog; 3000 μg/kg, 30 min",-49.0%
same,Variation (%) of TPR after treatment,"anaesthetised dog; 3000 μg/kg, 30 min",-8.5%
"COC(=O)c1ccc2c(c1)C(N1C(=O)CCC1CO)C(O)C(C)(C)O2 (single isomer, unassigned) [Example 24 B form]",Inhibition of the bronchospasm produced by a histamine aerosol at 4%,guinea pig,100%
